Literature values, collected in patent publication US20250064782A1, “Methods of Treating Substance Use Disorders Using 5-MeO-DMT” (Journey Colab Corp., priority 2021, published 2025).

Assays:
[1] = rodents; Shen et al. 2011, Ermakova et al. 2022
[2] = system: IL-6; conditions: Uthaug et al. 2020

COc1ccc2[nH]cc(CCN(C)C)c2c1 [5-MeO-DMT, 5-methoxy-N,N-dimethyltryptamine]
pharmacokinetics of 5-MeO-DMT [1]: Non-linear pharmacokinetics
IL-6 levels post-administration [2]: significantly decrease IL-6 levels
